Test results: patent US20100311767A1 (priority 2007, published 2010)

Tested on: cultured hippocampal neurons

| Molecule | frequency of spontaneous IPSCs [%] | amplitude of miniature PSCs [%] | frequency of miniature PSCs [%] |
| --- | --- | --- | --- |
| CC(C)NCC(O)c1ccc(O)c(O)c1 (stereo not drawn) [isoproterenol, 4-[1-hydroxy-2-(1-methylethylamino)ethyl]benzene-1,2-diol] | 122±58 | – | – |
| ω-agatoxin IVA | – | 90±7 | 27±7 |
